Test results: patent US20240398817A1, “CARDIO- AND RENOSAFE ANTIDIABETIC THERAPY” (priority 2018, published 2024)

Test system: patients with type 2 diabetes at high vascular risk
Assay: Cardiovascular and Renal Outcomes Trial: linagliptin 5 mg once daily vs placebo on top of standard of care
Type: in vivo
Experimental: The effect of linagliptin on cardiovascular risk in adult patients with type 2 diabetes mellitus and with increased CV risk evidenced by a history of established macrovascular or renal disease (e.g. as defined herein) was evaluated in a multi-center, multi-national, randomized, double-blind parallel group trial. The trial compared the risk of experiencing a major adverse cardiovascular event (MACE) between linagliptin and placebo when these were added to and used concomitantly with standard of care treatments for diabetes (HbA1c), cardiovascular risk factors and renal disease.
The primary endpoint in this trial was the time to first occurrence of three point (3P) MACE. A major adverse cardiac event was defined as a cardiovascular death or a nonfatal myocardial infarction (MI) or a nonfatal stroke. The statistical analysis plan tested for non-inferiority for the occurrence of (3P) MACE. […] The secondary endpoint was a renal composite, defined as renal death or sustained end stage renal disease or sustained decrease of 40% or more in eGFR.
Type 2 diabetes patient with insufficient glycemic control (naïve or pre-treated with any antidiabetic background medication, excluding treatment with GLP-1 receptor agonists, DPP-4inhibitors or SGLT-2 inhibitors if ≥consecutive 7 days, e.g. having HbA1c 6.5-10%), and high risk of cardiovascular events, e.g. defined by: • albuminuria (micro or macro) and previous macrovascular disease: e.g. defined according to Condition I as indicated below; • and/or • impaired renal function: e.g. as defined according to Condition II as indicated below;
Background and aims: People with type 2 diabetes (T2D) are at increased risk for hospitalization for heart failure (hHF), particularly in the setting of concomitant cardiovascular (CV) and/or kidney disease. […] Here we present analyses of HF outcomes with the DPP-4 inhibitor linagliptin (LINA) vs. placebo (PBO) from a Cardiovascular and Renal Outcomes Trial assessing cardiovascular safety and renal microvascular outcome in patients with type 2 diabetes at high vascular risk, a large CV outcomes trial that enrolled participants with T2D at high risk for hHF due to concomitant CV and/or chronic kidney disease. Materials and methods: People with T2D and concomitant CV and/or kidney disease were randomized to receive LINA 5 mg, or PBO once daily (1:1), on top of standard of care. All hHF, CV outcomes, and deaths were centrally adjudicated, with individual and composite HF-related outcomes analyses comparing LINA vs. placebo. Investigator-reported HF-related adverse events, whether or not confirmed by adjudication, were also analyzed. A Cox proportional hazards model adjusting for region and history of HF was used for analyses of first events. Recurrent hHF events were analyzed using a negative binomial model.
Methods: The present Cardiovascular and Renal Outcomes Trial randomized people with T2D and i) concomitant CV disease with UACR >30 mg/g or ii) prevalent CKD (i.e. GFR <45 ml/min/1.73m2 and/or UACR >200 mg/g) to receive the DPP-4 inhibitor linagliptin (5 mg) or placebo once daily in a double-blind fashion. The primary CV endpoint was 3P-MACE, with a key secondary kidney endpoint (adjudicated ESKD, renal death, or sustained ≥40% decrease in eGFR from baseline) and other renal outcomes (including albuminuria and eGFR slope) also assessed. Subgroups were assessed by baseline kidney function (eGFR ≥/<45 ml/min/1.73m2and eGFR ≥/<30, 45 or 60 ml/min/1.73m2).
Adults with type 2 diabetes, HbA1c 6.5-10.0% inclusive, and high CV risk were eligible for inclusion. […] Macrovascular disease eligibility criteria was based on documented and confirmed history of myocardial infarction, coronary artery disease, stroke, carotid artery disease, or peripheral artery disease. Participants with end-stage kidney disease (ESKD), defined as eGFR <15 or requiring maintenance dialysis, were excluded.

[1] = eGFR ≥45 to <60 mL/min/1.73 m^2

CC#CCn1c(N2CCC[C@@H](N)C2)nc2c1c(=O)n(Cc1nc(C)c3ccccc3n1)c(=O)n2C [Linagliptin, 1-[(4-methyl-quinazolin-2-yl)methyl]-3-methyl-7-(2-butyn-1-yl)-8-(3-(R)-amino-piperidin-1-yl)-xanthine]
Renal death, sustained ESKD, or ≥ doubling of se-creatinine: n (eGFR ≥ 45 (n = 3979)): 54 | Renal death, sustained ESKD, or ≥ doubling of se-creatinine: rate/100 patient-years (eGFR ≥ 45 (n = 3979)): 1.38 per 100 patient-years | 3-point MACE: hazard ratio vs placebo [1]: 1.12 | 3-point MACE: patients with event/patients analyzed [1]: 81/690 | Key secondary kidney outcome: hazard ratio vs placebo [1]: 0.94 | Key secondary kidney outcome: patients with event/patients analyzed [1]: 51/690 | 3-point MACE: hazard ratio vs placebo (eGFR ≥60 mL/min/1.73 m^2): 0.96 | 3-point MACE: patients with event/patients analyzed (eGFR ≥60 mL/min/1.73 m^2): 103/1294 | Key secondary kidney outcome: hazard ratio vs placebo (eGFR ≥60 mL/min/1.73 m^2): 1.46 | Key secondary kidney outcome: patients with event/patients analyzed (eGFR ≥60 mL/min/1.73 m^2): 54/1294 | Non-fatal MI as component of 3-point MACE primary outcome: % (first event of composite): (4.4) % | Non-fatal MI as component of 3-point MACE primary outcome: no. (first event of composite): 154 | Non-fatal stroke as component of 3-point MACE primary outcome: % (first event of composite): (1.7) % | Non-fatal stroke as component of 3-point MACE primary outcome: no. (first event of composite): 59 | 4-point MACE (3-point MACE or hospitalization for unstable angina): no. (in vivo): 463 | 4-point MACE: % (in vivo): (13.3) % | 4-point MACE: hazard ratio vs placebo (in vivo): 1.00 | 4-point MACE: rate/1000 patient-years (in vivo): 62.0 per 1000 patient years | Acute pancreatitis, adjudication confirmed: % (in vivo): 0.3% | Acute pancreatitis, adjudication confirmed: N (in vivo): 9^1 | Adverse events leading to discontinuation: % (in vivo): 10.3% | Adverse events leading to discontinuation: N (in vivo): 359 | Albuminuria progression: rate/100 patient-years (in vivo): 21.36 per 100 patient-years | Albuminuria progression: rate/1000 patient-years (in vivo): 213.6 per 1000 patient years | All cancers (malignancies): % (in vivo): 3.3% | All cancers (malignancies): N (in vivo): 116 | Angioedema events with concomitant ACE/ARB use at baseline: % (in vivo): 0.45% | Angioedema events with concomitant ACE/ARB use at baseline: N (in vivo): 13 | Any adverse events: % (in vivo): 77.2% | Changes in body weight or waist circumference vs placebo, in words (in vivo): No clinically meaningful differences | Changes in weight, systolic and diastolic blood pressure and LDL/HDL cholesterol vs placebo, in words (in vivo): no different between groups | Chronic pancreatitis, adjudication confirmed: % (in vivo): 0.1% | Chronic pancreatitis, adjudication confirmed: N (in vivo): 2 | Colon cancer: % (in vivo): 0.2% | Colon cancer: N (in vivo): 6 | Composite microvascular endpoint (renal and eye outcomes): number of patients (in vivo): 785 | Composite microvascular endpoint: hazard ratio (95% CI) vs placebo (in vivo): 0.86 | Composite microvascular endpoint: rate/1000 patient-years (in vivo): 221.4 per 1000 patient years | Composite ocular endpoint: hazard ratio vs placebo (in vivo): 0.73 | Composite ocular endpoint: number of patients (in vivo): 36 | Composite ocular endpoint: rate/1000 patient-years (in vivo): 4.7 per 1000 patient years | Composite renal endpoint 2 (50% eGFR) and composite renal endpoint 3 (30% eGFR with eGFR <60) vs placebo, in words (in vivo): No significant difference | Confirmed hypoglycemic adverse events with plasma glucose <54 mg/dl or severe event: % (in vivo): 15.9% | Confirmed hypoglycemic adverse events with plasma glucose <54 mg/dl or severe event: N (in vivo): 557 | Contributing to composite microvascular outcome: patients with retinal laser coagulation or anti-VEGF injection for diabetic retinopathy, % (in vivo): 0.2% | Contributing to composite microvascular outcome: patients with sustained >50% eGFR decrease, % (in vivo): 0.6% | Contributing to composite microvascular outcome: patients with sustained ESKD, % (in vivo): 0.3% | Contributing to composite microvascular outcome: patients with vitreous haemorrhage, % (in vivo): 0.1% | Contributing to composite ocular outcome: patients with anti-VEGF injection for diabetic retinopathy, % (in vivo): 0.3% | Contributing to composite ocular outcome: patients with diabetes related blindness, % (in vivo): 0.1% | Contributing to composite ocular outcome: patients with retinal laser coagulation, % (in vivo): 0.2% | Contributing to composite ocular outcome: patients with vitreous haemorrhage, % (in vivo): 0.5% | Coronary revascularization procedure: % (in vivo): (4.6) % | Coronary revascularization procedure: hazard ratio vs placebo (in vivo): 1.07 | Coronary revascularization procedure: no. (in vivo): 160 | Coronary revascularization procedure: rate/1000 patient-years (in vivo): 21.2 per 1000 patient years | Difference between treatment groups in HbA1c changes from baseline over time, in words (in vivo): significant up to the Week 132 visit | Fasting plasma glucose (FPG) vs placebo, in words (in vivo): significant differences observed between the treatment groups up to Week 84 | Fatal myocardial infarction: % (in vivo): (0.3) % | Fatal myocardial infarction: hazard ratio vs placebo (in vivo): 0.78 | Fatal myocardial infarction: no. (in vivo): 11 | Fatal myocardial infarction: rate/1000 patient-years (in vivo): 1.4 per 1000 patient years | Fatal or non-fatal myocardial infarction: % (in vivo): (4.7) % | Fatal or non-fatal myocardial infarction: hazard ratio vs placebo (in vivo): 1.12 | Fatal or non-fatal myocardial infarction: no. (in vivo): 165 | Fatal or non-fatal myocardial infarction: rate/1000 patient-years (in vivo): 21.8 per 1000 patient years | Fatal or non-fatal stroke: % (in vivo): (2.3) % | Fatal or non-fatal stroke: hazard ratio vs placebo (in vivo): 0.91 | Fatal or non-fatal stroke: no. (in vivo): 81 | Fatal or non-fatal stroke: rate/1000 patient-years (in vivo): 10.6 per 1000 patient years | Fatal stroke: % (in vivo): (0.5) % | Fatal stroke: hazard ratio vs placebo (in vivo): 1.05 | Fatal stroke: no. (in vivo): 17 | Fatal stroke: rate/1000 patient-years (in vivo): 2.2 per 1000 patient years | Gastric cancer: % (in vivo): 0.0% | Gastric cancer: N (in vivo): 0 | Hospitalization for heart failure or cardiovascular death: % (in vivo): (11.6) % | Hospitalization for heart failure or cardiovascular death: hazard ratio vs placebo (in vivo): 0.94 | Hospitalization for heart failure or cardiovascular death: no. (in vivo): 406 | Hospitalization for heart failure or cardiovascular death: rate per 100 person-years (in vivo): 5.37 per 100 person-years | Hospitalization for heart failure or cardiovascular death: rate/1000 patient-years (in vivo): 53.7 per 1000 patient years | Hospitalization for unstable angina: % (in vivo): (1.2) % | Hospitalization for unstable angina: hazard ratio vs placebo (in vivo): 0.87 | Hospitalization for unstable angina: no. (in vivo): 42
